Results on eleven compounds are retold here after ChEMBL document CHEMBL1201862, “PubChem BioAssay data set” (2004).

Assay in all cases: NCI anticancer screen, dose series, 48 h
In experiment [1] the test system is EKVX.
In experiment [2] the test system is HCC 2998.
Experiment [3] has as its system HL-60.
Experiment [4] has as its system HOP-62.
For experiment [5], the system named is LOX IMVI.
The test system of experiment [6] is M14.
Experiment [7] concerns MDA-MB-435.
In experiment [8] the test system is NCI-H460.
Experiment [9] concerns OVCAR-3.
In experiment [10] the test system is OVCAR-5.
Experiment [11] has as its system SF-268.
The subject of experiment [12] is SK-MEL-28.
Experiment [13] relates to SK-MEL-5.
The subject of experiment [14] is SK-OV-3.
For experiment [15], the system named is UACC-257.
For experiment [16], the system named is A498.
Experiment [17] relates to ACHN.
The test system of experiment [18] is Malme-3M.
The subject of experiment [19] is NCI-H226.
Experiment [20] deals with RPMI-8226.

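All cell lines were grown in 96-well plates and treated with compound for 48 hours. GI50: concentration for 50% inhibition of growth.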 Active and inactive are the calls of the source. No stated cut-off is given here; in the data, active = GI50 up to about 1.1 µM and inactive = higher.

For `CC1CCC2CC1NC(=O)CCOCCC(=O)NC2(C)C` (configuration not stated), the GI50 in experiment [1], in [2], in [3], in [4], in [5] and in [6] was > 100 µM (inactive) throughout. The GI50 in [7], in experiment [8], in experiment [9], in [10], in experiment [11] and in experiment [12] was > 100 µM (inactive) each time. For the same compound, the GI50 in experiment [13], in [14] and in experiment [15] was > 100 µM (inactive) throughout.

In the case of `CC(C)c1cccc(=O)c(O)c1`, the GI50 in experiment [16] was 14.6 µM (inactive); in [17] it was 1.87 µM (inactive); in experiment [1], 5.78 µM (inactive); in experiment [2], 9.44 µM (inactive); in [3] it was 2.02 µM (inactive); in [4] it was 5.3 µM (inactive). The GI50 in experiment [5] was 2.42 µM (inactive); in [6], 2.03 µM (inactive); in experiment [18], 1.35 µM (inactive); in experiment [19] it was 6.32 µM (inactive); in experiment [8], 2.27 µM (inactive); in experiment [9], 1.24 µM (inactive). The GI50 in experiment [10] is 9.73 µM (inactive); in experiment [20] it was 2.14 µM (inactive); in experiment [11], 1.38 µM (inactive); in experiment [12], 1.5 µM (inactive); in [13], 2.1 µM (inactive); in [14] it was 15.8 µM (inactive). Further, in experiment [15], the GI50 was 1.66 µM (inactive).

As for `COC1C=CC(C(=O)[N+]2=Cc3[nH]c4ccccc4c3CC2)O1` (configuration not stated), the GI50 was > 100 µM (inactive) in experiment [16]; 97.9 µM (inactive) in experiment [17]; 88.5 µM (inactive) in experiment [1]; 55.6 µM (inactive) in experiment [2]; 32.3 µM (inactive) in [3]; > 100 µM (inactive) in experiment [4]. Besides, the GI50 in experiment [5] is > 100 µM (inactive); in [6] it was > 100 µM (inactive); in [18] it was > 100 µM (inactive); in [19], 80.9 µM (inactive); in [8] it was 69.3 µM (inactive); in [9], 83.4 µM (inactive). Further, the GI50 in experiment [10] was > 100 µM (inactive); in experiment [20], 71.1 µM (inactive); in experiment [11], > 100 µM (inactive); in experiment [12], > 100 µM (inactive); in experiment [13], > 100 µM (inactive); in experiment [14] it was 52.5 µM (inactive). The GI50 in [15] was > 100 µM (inactive).

`O=C1c2c(c3c4ccccc4n4c3c3c2c2ccccc2n3C/C=C\C4)C(=O)N1Cc1ccccc1`: the GI50 in [16], in experiment [17], in experiment [1], in experiment [2], in experiment [3] and in [4] was > 100 µM (inactive) each time. Besides, the GI50 in experiment [5], in experiment [6], in [18], in experiment [19], in experiment [8] and in [9] was > 100 µM (inactive) throughout. Moreover, the GI50 in experiment [10], in [20], in experiment [12], in experiment [13], in experiment [14] and in experiment [15] was > 100 µM (inactive) throughout.

In the case of `C/C(CC(=O)Nc1ccc(C)cc1)=N\NC(N)=S`, the GI50 in experiment [16] was > 100 µM (inactive); in experiment [17], 79.4 µM (inactive); in experiment [1] it was > 100 µM (inactive); in experiment [2], > 100 µM (inactive); in [3], > 100 µM (inactive); in experiment [4] it was > 100 µM (inactive). In addition, the GI50 is 54.8 µM (inactive) in experiment [5]; 66.7 µM (inactive) in [6]; > 100 µM (inactive) in experiment [18]; > 100 µM (inactive) in experiment [19]; > 100 µM (inactive) in [8]; > 100 µM (inactive) in experiment [9]. Also, the GI50 in [10], in experiment [20], in experiment [11], in [12], in experiment [13] and in [14] was > 100 µM (inactive) throughout. Moreover, the GI50 in [15] is > 100 µM (inactive).

As for `CC(=O)OCCOCn1c2ccccc2c2c3c(c4c5ccccc5n(COCCOC(C)=O)c4c21)C(=O)N(Cc1ccccc1)C3=O`, the GI50 in experiment [16], in experiment [17], in experiment [1], in experiment [2], in experiment [3] and in [4] was > 100 µM (inactive) throughout. Besides, the GI50 in experiment [5], in experiment [6], in [18], in experiment [19], in experiment [8] and in experiment [10] was > 100 µM (inactive) in each case. Besides, the GI50 in experiment [20], in [11], in [12], in [13], in experiment [14] and in [15] was > 100 µM (inactive) throughout.

For the compound `Cc1ccc(-c2cc(-c3ccccc3)c(C#N)c(=O)[nH]2)cc1`, the GI50 in [16], in [17], in experiment [1], in [2], in experiment [3] and in experiment [4] was > 100 µM (inactive) each time. Also, the GI50 in [5], in experiment [6], in [18], in experiment [19], in [8] and in experiment [9] was > 100 µM (inactive) throughout. For the same compound, the GI50 in [10], in [20], in experiment [11], in experiment [12], in experiment [13] and in experiment [14] was > 100 µM (inactive) in each case. For the same compound, the GI50 in experiment [15] was > 100 µM (inactive).

In the case of `NNC(=O)/C(=C/c1cccc([N+](=O)[O-])c1)NC(=O)c1ccccc1`, the GI50 in experiment [16] is > 100 µM (inactive); in experiment [17], > 100 µM (inactive); in [1] it was < 0.01 µM (active); in [2] it was > 100 µM (inactive); in [3], > 100 µM (inactive); in experiment [4], > 100 µM (inactive). The GI50 in [5], in [6], in [18], in experiment [19], in experiment [8] and in experiment [9] was > 100 µM (inactive) each time. In addition, the GI50 in [10] is 77.3 µM (inactive); in experiment [20], > 100 µM (inactive); in experiment [11], > 100 µM (inactive); in experiment [12], > 100 µM (inactive); in [13], > 100 µM (inactive); in experiment [14], > 100 µM (inactive). The GI50 in [15] was > 100 µM (inactive).

Take `CN(C)CCC(=O)c1ccccc1`: the GI50 was > 71.6 µM (inactive) in experiment [16]; > 57.5 µM (inactive) in experiment [17]; > 55.6 µM (inactive) in [1]; > 58.1 µM (inactive) in experiment [2]; 11.3 µM (inactive) in experiment [3]; > 100 µM (inactive) in experiment [4]. Besides, the GI50 in [5] was 36.4 µM (inactive); in experiment [6], 32.4 µM (inactive); in experiment [18], 16.1 µM (inactive); in experiment [19], > 58.7 µM (inactive); in [8], > 58.5 µM (inactive); in experiment [9], 42.7 µM (inactive). Moreover, the GI50 in [10] is > 43.7 µM (inactive); in experiment [20], 9.04 µM (inactive); in experiment [11], > 58.5 µM (inactive); in [12], 41 µM (inactive); in experiment [13], > 43 µM (inactive); in experiment [14], > 57.1 µM (inactive). In experiment [15], the GI50 was 37.8 µM (inactive).

For `CC(=O)OCC(=O)[C@@]12OC(C)(C)O[C@@H]1C[C@H]1[C@@H]3CC(C=O)=C4C=C(OCCCl)CC[C@]4(C)[C@@]3(F)[C@@H](O)C[C@@]12C` [FORMOCORTAL], the GI50 in experiment [16] is 21.9 µM (inactive); in experiment [17], > 100 µM (inactive); in [1], 10.3 µM (inactive); in experiment [2], 15.3 µM (inactive); in [3], 15.9 µM (inactive); in [4], 24.8 µM (inactive). In addition, the GI50 in experiment [5] is 25.8 µM (inactive); in experiment [6], 20.6 µM (inactive); in [18] it was 23.6 µM (inactive); in [19], 17.3 µM (inactive); in experiment [8], 14.1 µM (inactive); in experiment [9] it was 25.9 µM (inactive). The GI50 was 14.3 µM (inactive) in experiment [10]; 2.58 µM (inactive) in experiment [20]; 34.9 µM (inactive) in experiment [11]; 19 µM (inactive) in experiment [12]; 1.39 µM (inactive) in [14]; 23.4 µM (inactive) in experiment [15].

For the compound `N/C(=N\O)N/N=C/c1cccc(F)c1`, the GI50 is 40 µM (inactive) in experiment [16]; 27.7 µM (inactive) in experiment [17]; 37.1 µM (inactive) in experiment [1]; 84.9 µM (inactive) in experiment [2]; 25.5 µM (inactive) in experiment [3]; 26.9 µM (inactive) in experiment [4]. Moreover, the GI50 is 26.8 µM (inactive) in [5]; 21.2 µM (inactive) in [6]; 37.3 µM (inactive) in [18]; 21 µM (inactive) in experiment [19]; 26.4 µM (inactive) in experiment [8]; 75.2 µM (inactive) in experiment [9]. Besides, the GI50 in [10] is 33.7 µM (inactive); in experiment [20], 39 µM (inactive); in experiment [11], 21.6 µM (inactive); in [12], > 100 µM (inactive); in experiment [13] it was 14.8 µM (inactive); in experiment [14], 55.7 µM (inactive). For the same compound, in experiment [15], the GI50 is 52.4 µM (inactive).
